Measured values reported in ChEMBL document CHEMBL1201862, “PubChem BioAssay data set” (2004).
Activity calls are given as the source filed them. For most assays here, no stated cut-off is given here; in the data, actives have a measured EC50 and inactives only a lower limit.

Experiments:
[1] = target: T1, Sentrin-specific protease 7 (Homo sapiens, UniProt Q9BQF6); test: inhibition of human SENP7 cleavage activity – biochemical, luminescence, SAR follow-up (AID 504497); assay type: functional
T1 sequence (Q9BQF6 whole entry): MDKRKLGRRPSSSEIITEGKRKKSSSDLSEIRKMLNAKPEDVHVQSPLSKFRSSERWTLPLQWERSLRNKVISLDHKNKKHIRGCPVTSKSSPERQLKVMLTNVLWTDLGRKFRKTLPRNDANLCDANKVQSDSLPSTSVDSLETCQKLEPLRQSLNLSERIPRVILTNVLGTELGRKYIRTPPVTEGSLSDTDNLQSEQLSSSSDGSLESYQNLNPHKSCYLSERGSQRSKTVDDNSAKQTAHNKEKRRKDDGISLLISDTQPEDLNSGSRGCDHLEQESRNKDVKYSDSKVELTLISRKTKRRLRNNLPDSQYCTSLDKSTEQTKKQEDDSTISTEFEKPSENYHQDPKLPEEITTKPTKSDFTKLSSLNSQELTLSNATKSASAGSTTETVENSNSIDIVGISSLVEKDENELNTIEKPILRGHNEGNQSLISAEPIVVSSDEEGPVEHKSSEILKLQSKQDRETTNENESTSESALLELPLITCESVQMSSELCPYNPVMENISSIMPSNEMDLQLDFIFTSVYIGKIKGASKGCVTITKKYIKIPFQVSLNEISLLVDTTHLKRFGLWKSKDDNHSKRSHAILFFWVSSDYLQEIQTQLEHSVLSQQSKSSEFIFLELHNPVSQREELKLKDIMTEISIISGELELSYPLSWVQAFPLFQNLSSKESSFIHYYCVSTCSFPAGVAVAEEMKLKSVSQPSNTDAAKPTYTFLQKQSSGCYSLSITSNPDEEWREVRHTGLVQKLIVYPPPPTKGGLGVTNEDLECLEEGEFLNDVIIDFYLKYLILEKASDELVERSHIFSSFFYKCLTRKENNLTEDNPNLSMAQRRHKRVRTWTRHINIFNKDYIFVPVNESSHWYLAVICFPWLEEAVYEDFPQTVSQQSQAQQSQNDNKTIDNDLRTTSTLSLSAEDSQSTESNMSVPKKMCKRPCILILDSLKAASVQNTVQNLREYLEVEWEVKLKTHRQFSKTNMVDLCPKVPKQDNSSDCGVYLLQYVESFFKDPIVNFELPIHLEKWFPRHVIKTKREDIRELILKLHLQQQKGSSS

[2] = fluconazole-exposed Candida albicans growth modulators – fluorescence, retest, confirmation (AID 2467); assay type: functional, cell-based
[3] = NIH3T3 cell viability loss – ATP luminescence, mouse fibroblasts, counter-screen, dose response (AID 2010); assay type: functional, cell-based;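 further: cells exposed to compound for about 90 hours before reading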
[4] = target: T2, Replicative DNA helicase DnaB (Mycobacterium tuberculosis, UniProt P9WMR3); test: DnaB intein splicing inhibitors, dose response, biochemical, cell-free fluorescence (AID 449749); assay type: functional
T2 sequence (P9WMR3 whole entry): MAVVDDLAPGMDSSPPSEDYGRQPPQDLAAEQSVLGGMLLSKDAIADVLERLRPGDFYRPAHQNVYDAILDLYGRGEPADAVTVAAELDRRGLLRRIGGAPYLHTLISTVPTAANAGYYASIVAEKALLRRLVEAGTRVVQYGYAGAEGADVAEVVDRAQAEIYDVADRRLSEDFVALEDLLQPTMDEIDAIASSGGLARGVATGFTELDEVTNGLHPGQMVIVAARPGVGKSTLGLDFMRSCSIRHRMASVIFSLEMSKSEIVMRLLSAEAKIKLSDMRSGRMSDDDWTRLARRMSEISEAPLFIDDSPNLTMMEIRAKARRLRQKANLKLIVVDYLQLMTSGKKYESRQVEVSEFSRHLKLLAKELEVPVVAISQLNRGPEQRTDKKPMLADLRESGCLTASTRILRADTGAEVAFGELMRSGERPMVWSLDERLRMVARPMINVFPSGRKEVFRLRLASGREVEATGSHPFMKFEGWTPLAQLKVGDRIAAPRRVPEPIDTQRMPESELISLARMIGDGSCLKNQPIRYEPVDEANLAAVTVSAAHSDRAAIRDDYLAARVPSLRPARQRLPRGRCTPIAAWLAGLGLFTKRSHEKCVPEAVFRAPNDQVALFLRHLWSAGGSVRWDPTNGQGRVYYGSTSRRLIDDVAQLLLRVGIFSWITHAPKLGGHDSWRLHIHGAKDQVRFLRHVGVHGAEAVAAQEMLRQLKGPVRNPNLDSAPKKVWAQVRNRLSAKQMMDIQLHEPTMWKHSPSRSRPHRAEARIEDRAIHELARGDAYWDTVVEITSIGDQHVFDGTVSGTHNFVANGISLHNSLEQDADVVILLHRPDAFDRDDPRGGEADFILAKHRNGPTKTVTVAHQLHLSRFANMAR

[5] = target: G-protein coupled receptor 55 (Homo sapiens, UniProt Q9Y2T6); test: inhibition of LPI-stimulated GPR55 beta-arrestin translocation – imaging, U2OS, beta-arrestin-GFP, LPI agonist, primary screen (AID 2013); assay type: functional;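 further: antagonist potency measured as reduced agonist-driven arrestin aggregation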
[6] = alpha-synuclein stem-loop luciferase translation blockers – H4 neuroglioma cells, luminescence, confirmation (AID 1988); assay type: functional, cell-based
[7] = luciferase reporter signal suppression in cells – H4 neuroglioma cells, luminescence, dose response (AID 1990); assay type: functional, cell-based
[8] = target: Beta-galactosidase (Escherichia coli, UniProt Q8VNN2); assay type: functional
Beta-galactosidase, sequence (Q8VNN2 whole entry): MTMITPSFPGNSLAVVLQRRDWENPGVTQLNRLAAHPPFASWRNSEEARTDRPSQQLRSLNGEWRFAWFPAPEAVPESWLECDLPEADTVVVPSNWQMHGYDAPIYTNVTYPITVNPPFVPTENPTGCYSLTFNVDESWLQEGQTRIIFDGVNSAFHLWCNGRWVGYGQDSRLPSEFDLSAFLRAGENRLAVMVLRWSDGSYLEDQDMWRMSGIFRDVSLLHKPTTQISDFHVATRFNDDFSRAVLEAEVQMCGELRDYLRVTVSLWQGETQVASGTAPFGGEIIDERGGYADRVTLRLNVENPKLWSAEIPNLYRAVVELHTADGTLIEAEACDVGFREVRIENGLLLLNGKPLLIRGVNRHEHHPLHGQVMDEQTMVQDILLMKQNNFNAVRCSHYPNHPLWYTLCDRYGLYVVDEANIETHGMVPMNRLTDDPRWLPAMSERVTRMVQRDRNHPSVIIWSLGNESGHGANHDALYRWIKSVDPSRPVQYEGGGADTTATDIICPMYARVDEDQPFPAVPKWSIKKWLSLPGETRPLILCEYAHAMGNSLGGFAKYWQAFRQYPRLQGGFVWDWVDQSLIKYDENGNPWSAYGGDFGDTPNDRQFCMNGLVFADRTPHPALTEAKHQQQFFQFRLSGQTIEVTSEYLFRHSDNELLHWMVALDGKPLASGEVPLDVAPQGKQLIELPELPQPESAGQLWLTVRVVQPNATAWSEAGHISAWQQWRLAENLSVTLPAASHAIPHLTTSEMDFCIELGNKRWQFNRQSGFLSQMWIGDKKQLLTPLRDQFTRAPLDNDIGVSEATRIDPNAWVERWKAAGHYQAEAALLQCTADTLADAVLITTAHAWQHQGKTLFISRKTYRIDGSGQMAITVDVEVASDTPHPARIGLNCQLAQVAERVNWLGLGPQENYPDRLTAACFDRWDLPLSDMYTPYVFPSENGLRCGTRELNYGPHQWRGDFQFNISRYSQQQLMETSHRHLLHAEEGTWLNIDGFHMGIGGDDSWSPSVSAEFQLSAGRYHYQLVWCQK

G-protein coupled receptor 55, sequence (Q9Y2T6 whole entry): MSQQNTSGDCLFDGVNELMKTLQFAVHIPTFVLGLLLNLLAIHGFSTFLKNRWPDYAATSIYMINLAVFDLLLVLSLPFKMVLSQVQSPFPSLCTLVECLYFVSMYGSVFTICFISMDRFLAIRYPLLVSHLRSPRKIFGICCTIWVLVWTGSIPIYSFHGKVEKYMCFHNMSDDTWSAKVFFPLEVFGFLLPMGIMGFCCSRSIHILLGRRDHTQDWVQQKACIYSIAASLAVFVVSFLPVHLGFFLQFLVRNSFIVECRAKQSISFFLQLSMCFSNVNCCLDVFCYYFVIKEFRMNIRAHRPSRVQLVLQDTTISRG

Compound: Oc1ccc(/C=N\Nc2cc(N3CCOCC3)nc(N3CCOCC3)n2)c(O)c1
- IC50 [1]: 78 µM (active)

Compound: Cc1ccc(C)c(S(=O)(=O)N2CCN(Cc3ccc(O)c4ncccc34)CC2)c1
- EC50 [2]: 1.14 µM (active)

Compound: COc1cc(NC(=O)Cn2ncc(Cl)c(Cl)c2=O)c(C)cc1[N+](=O)[O-]
- EC50 [3]: 3.17 µM (active)
- AC50 [4]: 26.6 µM (active)
- IC50 [5]: 3.52 µM (active)
- EC50 [6]: > 120 µM (not active)
- EC50 [7]: 8.09 µM (active)
- EC50 [8]: > 31.5 µM (inactive)
